Here are results for 40 molecules from US20210238139A1, “MODULATORS OF TRYPTOPHAN CATABOLISM” (E-Therapeutics PLC, priority 2018, published 2021).

pIC50: −log10 of the molar value.

This assay deals with SK-OV-3 cells. Briefly: Effect of compounds on tryptophan catabolism in SK-OV-3 cell line (inhibition of kynurenine production, LC-MS/MS). The class given is cell-based. Conditions: Homo sapiens, SK-OV-3, 24 h, SK-OV-3 cell line, 24 h incubation, kynurenine in supernatant by LC-MS/MS; read-out: IC50 Ranges (ic50 values for inhibition of Kynurenine production). The protocol:
SK-OV-3 cells are seeded in 96-well plates in McCoy's 5A medium supplemented with 10% FBS and incubated overnight at 37° C., 5% CO2, 95% humidity. The […] growth medium is replaced with DMEM F-12 medium supplemented with 6 mg/mL L-tryptophan. Compounds are added to the wells and incubated for 24 h at 37° C., 5% CO2, 95% humidity. Compounds are tested at 8 consecutive 3-fold dilutions starting from 30 μM in duplicate. At the end of incubation, concentration of kynurenine in cell supernatants is […] determined by LC-MS/MS. In parallel, cell viability is assessed by measurement of ATP using CellTiter Glo assay (Promega), according to manufacturer's protocol. Inhibition of Kyn production is calculated using the following formula: […] IC50 ranges for compounds of the invention are presented in Table 2, whereby the IC50 ranges are as follows: • A: […]

In the case of `O=C(Nc1ccc(F)c(F)c1)N(Cc1ccccc1Cl)C1CCCC1` [Compound 40, 1-[(2-chlorophenyl)methyl]-1-cyclopentyl-3-(3,4-difluorophenyl)urea], the pIC50 (as a rule, −log10 of the IC50, conventionally taken in molar units) was 6.30 to 7.00.
For `CC(c1cccc(C#N)c1)N(C(=O)Nc1ccc(C#N)cc1)C1CCCC1` (racemic) [Compound 188, 3-(4-cyanophenyl)-1-[1-(3-cyanophenyl)ethyl]-1-cyclopentyl-urea] the value was 6.30 to 7.00; for `C=CCNC(=O)N(Cc1cccs1)C1CCCC1` [Compound 15, 3-allyl-1-cyclopentyl-1-(2-thienylmethyl)urea], 5.30 to 6.00.
For the molecule `Cc1ccc(CN(C(=O)Nc2ccc(Cl)cc2)c2cnnn2C)o1` [Compound 267, 3-(4-chlorophenyl)-1-[(5-methyl-2-furyl)methyl]-1-(3-methyltriazol-4-yl)urea], the pIC50 is 6.30 to 7.00.
For `CC(C)(C)OC(=O)N1CCC(CN(C(=O)Nc2ccccc2)C2CCCC2)CC1` [Compound 118, tert-butyl 4-[[cyclopentyl(phenylcarbamoyl)amino]methyl]piperidine-1-carboxylate] the value was 5.30 to 6.00; for `Cc1ccc(CN(C(=O)NCc2ccc(C#N)cc2)C2CCCC2)o1` [Compound 96, 3-[(4-cyanophenyl)methyl]-1-cyclopentyl-1-[(5-methyl-2-furyl)methyl]urea], less than 5.30.
Under `O=C(Nc1cccnc1)N(Cc1cccs1)C1CCCC1` [Compound 57, 1-cyclopentyl-3-(3-pyridyl)-1-(2-thienylmethyl)urea] stands less than 5.30; under `N#Cc1cccc(CN(C(=O)Nc2ccc(F)cc2)C2CCCC2)n1` [Compound 126, 1-[(6-cyano-2-pyridyl)methyl]-1-cyclopentyl-3-(4-fluorophenyl)urea], 6.00 to 6.30; under `Cc1ccc(CN(C(=O)Nc2ccc(C#N)cc2)[C@H]2C[C@H](F)C2)o1` [Compound 272, 3-(4-cyanophenyl)-1-(3-fluorocyclobutyl)-1-[(5-methyl-2-furyl)methyl]urea], 6.00 to 6.30.
Turning to `Cc1ccc(CN(C(=O)Nc2ccc(Cl)cc2)c2nc3ccccc3s2)o1` [Compound 300, 1-(1,3-benzothiazol-2-yl)-3-(4-chlorophenyl)-1-[(5-methyl-2-furyl)methyl]urea], the pIC50 is 5.30 to 6.00.
As to `O=C(Nc1ccc(C(F)(F)F)cc1)N(Cc1cccs1)C1CCCC1` [Compound 13, 1-cyclopentyl-1-(2-thienylmethyl)-3-[4-(trifluoromethyl)phenyl]urea], the negative-log IC50 (pIC50) is 5.30 to 6.00.
Under `N#Cc1ccc(NC(=O)N(Cc2cccc3ncsc23)C2CCC2)cc1` [Compound 263, 1-(1,3-benzothiazol-7-ylmethyl)-3-(4-cyanophenyl)-1-cyclobutyl-urea] stands 6.30 to 7.00.
Take `Cc1ccc(CN(C(=O)Nc2ccc(C#N)nc2)C2CCCC2)o1` [Compound 124, 3-(6-cyano-3-pyridyl)-1-cyclopentyl-1-[(5-methyl-2-furyl)methyl]urea]: the pIC50 is 6.30 to 7.00.
For `Cn1ncc(CN(C(=O)Nc2ccccc2)C2CCCC2)c1Cl` [Compound 41, 1-[(5-chloro-1-methyl-pyrazol-4-yl)methyl]-1-cyclopentyl-3-phenyl-urea] the value was 5.30 to 6.00; for `Cc1ncc(CN(C(=O)Nc2ccc(C#N)cc2)c2conc2C)o1` [Compound 316, 3-(4-cyanophenyl)-(3-methylisoxazol-4-yl)-1-[(2-methyloxazol-5-yl)methyl]urea], less than 5.30.
Take `Cc1ccc(CN(C(=O)NCCc2ccccc2)C2CCCC2)o1` [Compound 181, 1-cyclopentyl-1-[(5-methyl-2-furyl)methyl]-3-(2-phenylethyl)urea]: the negative logarithm of the IC50 (pIC50) was 5.30 to 6.00.
For `O=C(NCc1sccc1Cl)Nc1cccc(Cl)c1` [Compound 204, 1-(3-chlorophenyl)-3-[(3-chloro-2-thienyl)methyl]urea] the value was less than 5.30; for `Cc1ccc(CN(C(=O)Nc2ccc(Cl)cc2)C2CCCC2C#N)o1` (stereo not shown) [Compound 227, 3-(4-chlorophenyl)-1-(2-cyanocyclopentyl)-1-[(5-methyl-2-furyl)methyl]urea], more than 7.00; for `Cc1ccc(CN(C(=O)Nc2nnc(C3CCCCC3)o2)C2CCCC2)o1` [Compound 169, 3-(5-cyclohexyl-1,3,4-oxadiazol-2-yl)-1-cyclopentyl-1-[(5-methyl-2-furyl)methyl]urea], 5.30 to 6.00.
On to `Cc1ccc(CN(C(=O)Nc2ccc(Cl)cc2)C2CCC(F)(F)C2)o1` (stereo not shown) [Compound 245, 3-(4-chlorophenyl)-1-(3,3-difluorocyclopentyl)-1-[(5-methyl-2-furyl)methyl]urea], for which the pIC50 was 6.30 to 7.00.
With `O=C(Nc1ccc(Cl)cc1)N(Cc1ccc2ocnc2c1)C1CCC1` [Compound 232, 1-(1,3-benzoxazol-5-ylmethyl)-3-(4-chlorophenyl)-1-cyclobutyl-urea], the pIC50 is more than 7.00.
Under `N#Cc1ccc(NC(=O)N(Cc2ccn3ccnc3n2)C2CCC2)cc1` [Compound 274, 3-(4-cyanophenyl)-1-cyclobutyl-1-(imidazo[1,2-a]pyrimidin-7-ylmethyl)urea] stands 5.30 to 6.00.
In the case of `Cc1ccc(CN(C(=O)Nc2ccc(C#CCN(C)C)cc2)C2CCCC2)o1` [Compound 112, 1-cyclopentyl-3-[4-[3-(dimethylamino)prop-1-ynyl]phenyl]-1-[(5-methyl-2-furyl)methyl]urea], the pIC50 is 6.00 to 6.30.
For the molecule `Cc1ncc(CN(C(=O)Nc2ccc(C#CCO)cc2)c2conc2C)o1` [Compound 321, 3-[4-(3-hydroxyprop-1-ynyl)phenyl]-1-(3-methylisoxazol-4-yl)-1-[(2-methyloxazol-5-yl)methyl]urea], the negative logarithm of the IC50 (pIC50) is 5.30 to 6.00.
For `Cc1oncc1N(Cc1ccc2scnc2c1)C(=O)Nc1ccc(C#N)cc1` [Compound 281, 1-(1,3-benzothiazol-5-ylmethyl)-3-(4-cyanophenyl)-1-(5-methylisoxazol-4-yl)urea], the pIC50 was 5.30 to 6.00.
Under `Cc1ccc(CN(C(=O)Nc2ccc(Cl)cc2)C2CC3(COC3)C2)o1` [Compound 286, 3-(4-chlorophenyl)-1-[(5-methyl-2-furyl)methyl]-1-(2-oxaspiro[3.3]heptan-6-yl)urea] stands 5.30 to 6.00; under `CC1(CN(C(=O)Nc2ccc(Cl)cc2)C2CCCC2)CCNCC1` [Compound 87, 3-(4-chlorophenyl)-1-cyclopentyl-1-[(4-methyl-4-piperidyl)methyl]urea], less than 5.30.
Regarding `Cc1ccc(CN(C(=O)Nc2ccc(F)c(F)c2)C2CCCC2)o1` [Compound 31, 1-cyclopentyl-3-(3,4-difluorophenyl)-1-[(5-methyl-2-furyl)methyl]urea], the negative logarithm of the IC50 (pIC50) is 6.30 to 7.00.
Under `N#Cc1ccc(NC(=O)N(Cc2cn3ccncc3n2)C2CCC2)cc1` [Compound 211, 3-(4-cyanophenyl)-1-cyclobutyl-1-(imidazo[1,2-a]pyrazin-2-ylmethyl)urea] stands less than 5.30; under `CC1(CN(C(=O)Nc2ccc(Cl)cc2)C2CCCC2)CCN(C(=O)OC(C)(C)C)CC1` [Compound 79, tert-butyl 4-[[(4-chlorophenyl)carbamoyl-cyclopentyl-amino]methyl]-4-methyl-piperidine-1-carboxylate], 6.30 to 7.00.
For `Cc1ccc(CN(C(=O)Nc2ccc(Cl)cc2)C23CC(C2)C3)o1` [Compound 284, 1-(1-bicyclo[1.1.1]pentanyl)-3-(4-chlorophenyl)-1-[(5-methyl-2-furyl)methyl]urea] the value was 6.30 to 7.00; for `Cc1ncc(CN(C(=O)Nc2ccc(C#CCO)cc2)C2CCCC2)o1` [Compound 294, 1-cyclopentyl-3-[4-(3-hydroxyprop-1-ynyl)phenyl]-1-[(2-methyloxazol-5-yl)methyl]urea], more than 7.00.
For `Cc1ccc(CN(C(=O)Nc2ccc(C#N)cc2)c2ncccn2)o1` [Compound 324, 3-(4-cyanophenyl)-1-[(5-methyl-2-furyl)methyl]-1-pyrimidin-2-yl-urea], the pIC50 was less than 5.30.
Take `CC(NC(=O)Nc1ccccc1)c1ccc(F)cc1` (racemic) [Compound 197, 1-[1-(4-fluorophenyl)ethyl]-3-phenyl-urea]: the negative-log IC50 (pIC50) was 5.30 to 6.00.
For `O=C(Nc1ccc(F)c(F)c1)N(Cc1nccs1)C1CCCC1` [Compound 37, 1-cyclopentyl-3-(3,4-difluorophenyl)-1-(thiazol-2-ylmethyl)urea] the value was 5.30 to 6.00; for `Cc1ccc(CN(C(=O)Nc2ccc(-c3cn[nH]c3)cc2)C2CCCC2)o1` [Compound 108, 1-cyclopentyl-1-[(5-methyl-2-furyl)methyl]-3-[4-(1H-pyrazol-4-yl)phenyl]urea], 6.30 to 7.00; for `N#Cc1cc(CN(C(=O)Nc2ccc(Cl)cc2)C2CCCC2)ccn1` [Compound 114, 3-(4-chlorophenyl)-1-[(2-cyano-4-pyridyl)methyl]-1-cyclopentyl-urea], 6.30 to 7.00.
Under `Cc1nocc1N(Cc1cccc(C#N)n1)C(=O)Nc1ccc(Cl)cc1` [Compound 313, 3-(4-chlorophenyl)-1-[(6-cyano-2-pyridyl)methyl]-1-(3-methylisoxazol-4-yl)urea] stands 6.30 to 7.00; under `N#Cc1ccc(NC(=O)N(Cc2nc3c(s2)COCC3)C2CCCC2)cc1` [Compound 310, 3-(4-cyanophenyl)-1-cyclopentyl-1-(6,7-dihydro-4H-pyrano[4,3-d]thiazol-2-ylmethyl)urea], 5.30 to 6.00; under `Cc1oncc1N(Cc1ccnc(C(F)(F)F)c1)C(=O)Nc1ccc(C#N)cc1` [Compound 288, 3-(4-cyanophenyl)-1-(5-methylisoxazol-4-yl)-1-[[2-(trifluoromethyl)-4-pyridyl]methyl]urea], 5.30 to 6.00.
